# Structures can show the parent of a compound that is named as a salt. Where two headings read alike, the source gives them in different places.
# Columns and labels:
# [1] = HCQ sulfate solubility in liquid glycerol formulations, HPLC assay for HCQ; format: physicochemical; settings: dissolution protocol of Example 1
# Method: Liquid HCQ formulations. […] Step 1: 63 g of glycerol were weighed and transferred into a 50 ml beaker with magnetic stir bar and heated to 70° C. while stirred. Step 2: 10 g HCQ sulfate were weighed and slowly added to the 70° C. glycerol of Step 1 with continued stirring and with maintenance of 70° C. until a clear liquid solution was formed. Step 3: 10 g HCQ sulfate was weighed and slowly added to resultant clear liquid solution of Step 3 with continued stirring and with maintenance of 70° C. until a clear liquid solution was formed. Step 4: the resultant clear liquid solution of Step 4 was cooled to room temperature.
# HPLC steps. Step 1. […] The chromatogram was recorded and used to identify any peak eluting at the retention time of major peaks. […] The chromatogram was recorded and used to identify the HCQ peak and calculate its signal to noise ratio. […] The chromatogram was recorded and used to identify HCQ and HCQ-n-oxide peaks and the resolution between those peaks was calculated. […] The chromatograms were recorded and used to calculate the average and % RSD for the HCQ peak area responses obtained from the six replicate injections of standard solution. The tailing factor was determined. […] The chromatograms were recorded and used to calculate average peak area responses of the HCQ obtained from the two replicate injections of standard check solution. The similarity factor was calculated. […]
# [2] = cited from earlier work
smiles,measurement,setting,value
"CCN(CCO)CCCC(C)Nc1ccnc2cc(Cl)ccc12 (centres unmarked) [HCQ, 2-[[4-[(7-Chloro-4-quinolyl)amino]pentyl]ethylamino] ethanol sulfate (1:1)]",HCQ dissolved in glycerol,[1],273 mg/mL
same,"Solubility, Inference as USP",[2]; solvent Alcohol,Practically insoluble or slightly soluble
same,"Solubility, Inference as USP",[2]; solvent Chloroform,Practically insoluble or slightly soluble
same,"Solubility, Inference as USP",[2]; solvent Dimethylformamide,Sparingly soluble (10-33)
same,"Solubility, Inference as USP",[2]; solvent Dimethylsulfoxide,Insoluble or sparingly soluble
same,"Solubility, Inference as USP",[2]; solvent Ethanol,Sparingly soluble or insoluble
same,"Solubility, Inference as USP",[2]; solvent Ether,Practically insoluble or very slightly soluble
same,"Solubility, Inference as USP",[2]; solvent Glycerol,Very slightly soluble (0.1-1)
